Several values for one entry are separate records, joined by “and”; a condition that tells them apart may be missing. Equal values may be shown once.
These compounds were tested on S. typhi GFP reporter counter-screen, fluorescence, 4 h (assay: inhibitors in S. typhi counter-screen strain, dose response, counter-screen for PhoP regulon inhibitor project, fluorescence, 4 h (AID 2384)).
For c1ccc2cc3c(NCCN4CCOCC4)ccnc3cc2c1, the IC50 was 88.2 µM.
With C=C1c2cccc(O)c2C(O)=C2C(=O)[C@]3(O)C(O)=C(C(N)=O)C(=O)[C@@H](N(C)C)[C@@H]3[C@@H](O)[C@H]12 the IC50 was less than 0.23 µM.
With CN1CCN(C2=Cc3ccccc3Sc3cc(F)c(Cl)cc32)CC1 the IC50 was 27 µM.
In the case of O=C(N/N=C/c1ccc([N+](=O)[O-])o1)C(O)c1ccccc1 (stereo not given), the IC50 is reported as 37.4 µM.
OC(CNCCc1ccc(Cl)cc1)COc1cc(Cl)ccc1Cl (stereo not given) was tested, and the IC50 was 80.6 µM.
Work on CC(=O)NC(c1cccc([N+](=O)[O-])c1)c1ccc2cccnc2c1O (stereo not given) yielded an IC50 of 101 µM.
Compound OCCN1CCN(Cc2cc(Cl)c3cccnc3c2O)CC1 has an IC50 of 56.6 µM.
Cc1ccc(CC(=O)Nc2ncc([N+](=O)[O-])s2)cc1 showed an IC50 of 78.5 µM.
In the case of CN(C)CCOCCOc1ccc(Cl)c2ccccc12, the IC50 is reported as 41.1 µM.
Work on COc1cccc(/C=N\NC(=O)Cn2nnc3ccccc32)c1O yielded an IC50 of 94.6 µM.
For COC(=O)C1C(O)C(C)C(O)C(C)/C=C\C=C(/C)C(=O)Nc2c(C)c(OC(C)=O)c3c(c2O)C(=O)C(C)=C2OCOC(=C23)/C(C)=C/C(C)(O)C(O)C(C)C1O (stereo not given), the IC50 was 15.2 µM.
In the case of Cc1ccc(-c2csc(N=C(N)N)n2)c(C)c1, the IC50 is reported as 46.3 µM.
Compound COc1cc2c3cc1Oc1cc(ccc1O)C[C@@H]1c4c(cc(OC)c(O)c4Oc4ccc(cc4)C[C@H]3N(C)CC2)CCN1C has an IC50 of 93.4 µM.
Compound O=CN/N=C/c1c(O)ccc2ccccc12 has an IC50 of 33.1 µM.
In the case of CCOc1ccc(Nc2nc(NCC3CCCO3)c3ccccc3n2)cc1 (stereo not given), the IC50 is reported as 19.6 µM.
Work on O=C(/C=C/c1ccccc1)c1ccc(NC2=NCCCS2)cc1 yielded an IC50 of 67.3 µM.
Compound CN1/C(=C\C=C\C2=[N+](C)c3ccc4ccccc4c3C2(C)C)C(C)(C)c2ccccc21 has an IC50 of 8.85 µM.
In the case of O=C(N/N=C/c1ccc(N2CCCC2)c([N+](=O)[O-])c1)c1cccnc1, the IC50 is reported as 104 µM.
In the case of Clc1ccc(C(c2ccc(Cl)cc2)n2cc[n+](CC(OCc3ccc(Cl)cc3Cl)c3ccc(Cl)cc3Cl)c2)cc1 (stereo not given), the IC50 is reported as 9.7 µM.
In the case of CC[C@H]1OC(=O)[C@H](C)[C@@H](O[C@H]2C[C@@](C)(OC)[C@@H](O)[C@H](C)O2)[C@H](C)[C@@H](O[C@@H]2O[C@H](C)C[C@H](N(C)C)[C@H]2O)[C@](C)(O)C[C@@H](C)[C@@H]2N[C@@H](COCCOC)O[C@H]([C@H]2C)[C@]1(C)O, the IC50 is reported as 5.52 µM.
Compound CCn1cc(C(=O)O)c(=O)c2cc(F)c(N3CCN(C(=S)Nc4ccccc4OC)CC3)cc21 has an IC50 of 41.1 µM.
With CCOC(=O)N1CCN(CCC(=O)c2ccc(Br)cc2)CC1 the IC50 was 82.3 µM.
CC1CCN(CCC(=O)Nc2ccc(Cl)cc2)CC1 gave an IC50 of 105 µM.
CC(=O)Oc1ccccc1C(=O)Nc1ncc([N+](=O)[O-])s1 showed an IC50 of 92 µM.
CC(C)(C)CC(C)(C)c1ccc(OCCOCC[N+](C)(C)Cc2ccccc2)cc1 showed an IC50 of 21.6 µM.
With CN1CCN(C2=Cc3ccccc3Sc3cc(F)ccc32)CC1 the IC50 was 46.7 µM.
OC1CNCc2cc3c(cc21)OCCO3 (stereo not given) gave an IC50 of 61.7 µM.
With CO[C@H]1/C=C/O[C@@]2(C)Oc3c(C)c(O)c4c(O)c(c(C=NN5CCN(C)CC5)c(O)c4c3C2=O)NC(=O)/C(C)=C\C=C\[C@H](C)[C@H](O)[C@@H](C)[C@@H](O)[C@@H](C)[C@H](OC(C)=O)[C@@H]1C the IC50 was 8.94 µM.
CC1CCC(C(C)C)C(OC(=O)Cn2c(COc3ccccc3)[n+](C)c3ccccc32)C1 (stereo not given) was tested, and the IC50 was 25.6 µM.
In the case of C#CCOCCOCCOCCNc1nc(N2CCN(C(=O)CCCCCCCCCCNC(=O)Cn3cc(CCCCCN)nn3)CC2)nc(N2CCN(C(=O)CCCCCCCCCCNC(=O)[C@@H]([C@H](C)O)n3cc(C)nn3)CC2)n1, the IC50 is reported as 115 µM.
Work on COc1ccc(C(C[N+](=O)[O-])C2(c3ccc(OC)c(OC)c3)C(=O)c3ccccc3C2=O)cc1 (stereo not given) yielded an IC50 of 18.2 µM.
In the case of S=C(NCc1ccc(Cl)cc1)Nc1ccncc1, the IC50 is reported as 35 µM.
O=C(CSc1nnc(-c2ccccc2)n1-c1ccc(Cl)cc1)NC1CCS(=O)(=O)C1 (stereo not given) gave an IC50 of 44.3 µM.
Work on COc1ccc(NC2=NC3(CCCCC3)N=C(N)N2)cc1 yielded an IC50 of 138 µM.
CCCCCCCCCCOC(=O)Cn1c(COc2cccc(C)c2)[n+](C)c2ccccc21 was tested, and the IC50 was 9.7 µM.
In the case of O=C(N/N=C/c1cc(Cl)ccc1O)c1cccnc1, the IC50 is reported as 20.9 µM.
C#CCOCCOCCOCCNc1nc(N2CCN(C(=O)[C@H](Cc3cc4ccccc4[nH]3)n3cc([C@@H](N)CC(C)C)nn3)CC2)nc(N2CCN(C(=O)[C@H](Cc3cc4ccccc4[nH]3)n3cc([C@@H](N)CC(C)C)nn3)CC2)n1 was tested, and the IC50 was 19.1 µM.
With COc1ccc(-c2cnc(NCc3cc4c(cc3[N+](=O)[O-])OCO4)n2C)cc1 the IC50 was 145 µM.
CCCCN(CCCC)C(=O)c1cn(CC)c2cc(N3CCN(C)CC3)c(F)cc2c1=O showed an IC50 of 15.7 µM.
O=C(CC(=O)c1ccccc1O)c1cccc(F)c1 was tested, and the IC50 was 28.9 µM.
Cc1ccc2nc(NCc3ccccc3)[nH]c2c1 was tested, and the IC50 was 35.2 µM.
C[C@H]1c2cccc(O)c2C(O)=C2C(=O)[C@]3(O)C(O)=C(C(N)=O)C(=O)[C@@H](N(C)C)C3[C@@H](O)C21 (stereo not given in full) was tested, and the IC50 was 0.68 µM.
Compound Nc1nonc1-n1nnc(C(=O)N/N=C/c2cc(Br)ccc2O)c1CSC1=NCCS1 has an IC50 of 24.1 µM.
Compound O=C(Nc1nc(-c2ccccn2)cs1)c1ccc(Br)s1 has an IC50 of 14.5 µM.
With CN1CCN(CCCN2c3ccccc3Sc3ccc(Cl)cc32)CC1 the IC50 was 41.7 µM and 23.8 µM.
For Clc1ccc(C[n+]2cc(-c3ccc(Cl)cc3)n3c2CCC3)cc1, the IC50 was 37.7 µM.
CO[C@@]1(NC(=O)Cc2cccs2)C(=O)N2C(C(=O)O)=C(COC(N)=O)CS[C@@H]21 was tested, and the IC50 was 7.08 µM.
Work on O=C(N/N=C/c1c[nH]c2ccccc12)c1cc2ccccc2o1 yielded an IC50 of 99.8 µM.
In the case of CC1CCN(CCCNC(=O)c2ccc3c(=O)n(Cc4ccc(Cl)cc4)c(=S)[nH]c3c2)CC1, the IC50 is reported as 47.8 µM.
Compound Cc1ccc2nc(N(CCCN(C)C)C(=O)c3ccc4c(c3)CCCC4)sc2c1 has an IC50 of 31.8 µM.
COc1cccc(CNCCc2c[nH]c3ccccc23)c1OCc1ccccc1 showed an IC50 of 89.1 µM.
Cc1ccc(-c2c[n+](Cc3ccc(Cl)cc3)c3n2CCC3)cc1 was tested, and the IC50 was 46 µM.
With CCN1CCN(C(=O)c2cc3ccc(OC)cc3[nH]2)CC1 the IC50 was 34.1 µM.
O=C(Nc1ccccc1)c1c(O)[nH]c(=S)[nH]c1=O showed an IC50 of 84.8 µM.
With c1ccc(Nc2nc(NCc3ccco3)c3ccccc3n2)cc1 the IC50 was 21.5 µM.
